± gives the standard deviation of the averaged measurements.
Key:
Experiment in all cases: relative viability vs DMSO control (72 h) (fraction); higher = more viable cells
HT1080 = tested on: HT1080
Method in brief: (§1)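 Sarcoma cell lines were plated in 384 wells to reach 80–90% confluence, treated after 24 h with 2.5 µl of serially diluted compound and held 72 h at 37 °C, 5% CO2. Relative viability was taken as percent growth from ATPLite readings, averaged over up to triplicate wells. The values were rescaled so that 1 marks full and 0 marks none.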

KHOS-NP = tested on: KHOS-NP
Method in brief: as §1

RD-ES = tested on: RD-ES
Method in brief: as §1

SW684 = tested on: SW684
Method in brief: as §1

SYO-1 = tested on: SYO-1
Method in brief: as §1

CCCS(=O)(=O)N[C@H]1C[C@@H](N(C)c2ncnc3[nH]ccc23)C1 [Abrocitinib]
relative viability
Details | HT1080 | KHOS-NP | RD-ES | SW684 | SYO-1
0.00017 µM | 1.026 ± 0.0073 | 1.05 ± 0.037 | 0.988 ± 0.043 | 1.11 ± 0.052 | 0.984 ± 0.051
0.00051 µM | 1.02 ± 0.02 | 1.04 ± 0.015 | 0.998 ± 0.033 | 1.12 ± 0.036 | 0.951 ± 0.023
0.00152 µM | 1.046 ± 0.0076 | 1.04 ± 0.015 | 0.985 ± 0.03 | 1.12 ± 0.078 | 0.956 ± 0.038
0.00457 µM | 1.022 ± 0.0084 | 1.05 ± 0.023 | 0.993 ± 0.031 | 1.15 ± 0.066 | 0.972 ± 0.051
0.01372 µM | 1.05 ± 0.019 | 1.05 ± 0.0097 | 1.02 ± 0.029 | 1.12 ± 0.036 | 0.952 ± 0.029
0.04115 µM | 1.05 ± 0.011 | 1.04 ± 0.014 | 1.03 ± 0.043 | 1.13 ± 0.03 | 0.957 ± 0.042
0.1235 µM | 1.026 ± 0.01 | 1.06 ± 0.019 | 1.03 ± 0.032 | 1.14 ± 0.054 | 0.974 ± 0.043
0.3704 µM | 1.04 ± 0.034 | 1.04 ± 0.042 | 1.015 ± 0.0074 | 1.16 ± 0.075 | 0.959 ± 0.032
1.111 µM | 1.021 ± 0.0061 | 1.05 ± 0.042 | 1.03 ± 0.033 | 1.11 ± 0.039 | 0.993 ± 0.039
3.333 µM | 1.03 ± 0.028 | 1.04 ± 0.038 | 1.03 ± 0.02 | 1.09 ± 0.056 | 0.994 ± 0.061
10 µM | 1.05 ± 0.039 | 1.039 ± 0.0042 | 1.03 ± 0.029 | 1.08 ± 0.066 | 1.01 ± 0.065

COc1cc2c(Oc3ccc4[nH]c(C)cc4c3F)ccnc2cc1OCC1(N)CC1 [Anlotinib]
relative viability
Details | HT1080 | KHOS-NP | RD-ES | SW684 | SYO-1
0.00017 µM | 1.023 ± 0.0019 | 1.06 ± 0.017 | 0.9225 ± 0.0047 | 1.15 ± 0.043 | 0.921 ± 0.013
0.00051 µM | 1.03 ± 0.019 | 1.06 ± 0.022 | 0.948 ± 0.017 | 1.09 ± 0.048 | 0.923 ± 0.012
0.00152 µM | 1.04 ± 0.0075 | 1.06 ± 0.045 | 0.969 ± 0.017 | 1.11 ± 0.022 | 0.92 ± 0.037
0.00457 µM | 1.03 ± 0.03 | 1.06 ± 0.019 | 0.965 ± 0.017 | 1.11 ± 0.022 | 0.884 ± 0.021
0.01372 µM | 1.05 ± 0.046 | 1.07 ± 0.026 | 0.98 ± 0.013 | 1.12 ± 0.036 | 0.856 ± 0.022
0.04115 µM | 1.05 ± 0.036 | 1.05 ± 0.038 | 0.992 ± 0.048 | 1.14 ± 0.028 | 0.817 ± 0.04
0.1235 µM | 1.07 ± 0.012 | 1.04 ± 0.04 | 0.977 ± 0.028 | 1.13 ± 0.021 | 0.679 ± 0.024
0.3704 µM | 1.08 ± 0.031 | 1.05 ± 0.035 | 0.9545 ± 0.0092 | 1.11 ± 0.03 | 0.529 ± 0.019
1.111 µM | 1.1 ± 0.051 | 1.04 ± 0.064 | 0.925 ± 0.025 | 1.07 ± 0.017 | 0.46 ± 0.0095
3.333 µM | 1.02 ± 0.064 | 0.735 ± 0.014 | 0.594 ± 0.062 | 0.847 ± 0.034 | 0.328 ± 0.019
10 µM | 0.0879 ± 0.01 | 0.264 ± 0.011 | 0.0858 ± 0.0061 | 0.502 ± 0.024 | 0.115 ± 0.0066

CCN(CCCOc1ccc2c(Nc3cc(CC(=O)Nc4cccc(F)c4)[nH]n3)ncnc2c1)CCOP(=O)(O)O [Barasertib]
relative viability
Details | HT1080 | KHOS-NP | RD-ES | SW684 | SYO-1
0.00017 µM | 1.05 ± 0.024 | 1.03 ± 0.035 | 0.994 ± 0.024 | 1.11 ± 0.028 | 0.939 ± 0.011
0.00051 µM | 1.04 ± 0.025 | 1.03 ± 0.032 | 0.974 ± 0.046 | 1.11 ± 0.028 | 0.918 ± 0.013
0.00152 µM | 1.04 ± 0.03 | 1.04 ± 0.015 | 0.984 ± 0.015 | 1.15 ± 0.054 | 0.891 ± 0.014
0.00457 µM | 1.04 ± 0.0055 | 1.048 ± 0.0078 | 0.951 ± 0.035 | 1.15 ± 0.025 | 0.82 ± 0.024
0.01372 µM | 1.02 ± 0.012 | 1.05 ± 0.029 | 0.746 ± 0.01 | 1.12 ± 0.022 | 0.479 ± 0.026
0.04115 µM | 0.977 ± 0.029 | 1.072 ± 0.005 | 0.156 ± 0.0099 | 1.04 ± 0.034 | 0.415 ± 0.021
0.1235 µM | 0.878 ± 0.025 | 1.08 ± 0.023 | 0.143 ± 0.02 | 1.06 ± 0.04 | 0.397 ± 0.024
0.3704 µM | 0.89 ± 0.019 | 1.09 ± 0.021 | 0.14 ± 0.011 | 1.11 ± 0.028 | 0.337 ± 0.035
1.111 µM | 0.9017 ± 0.0075 | 1.11 ± 0.017 | 0.131 ± 0.0095 | 1.08 ± 0.044 | 0.319 ± 0.011
3.333 µM | 0.895 ± 0.033 | 1.12 ± 0.013 | 0.117 ± 0.0084 | 0.977 ± 0.038 | 0.284 ± 0.0079
10 µM | 0.87 ± 0.019 | 1.13 ± 0.007 | 0.127 ± 0.011 | 0.816 ± 0.019 | 0.251 ± 0.017

COc1cc(Nc2c(C#N)cnc3cc(OCCCN4CCN(C)CC4)c(OC)cc23)c(Cl)cc1Cl [Bosutinib]
relative viability
Details | HT1080 | KHOS-NP | RD-ES | SW684 | SYO-1
0.00017 µM | 1.14 ± 0.032 | 1.08 ± 0.017 | 0.965 ± 0.058 | 1.24 ± 0.013 | 1.04 ± 0.055
0.00051 µM | 1.14 ± 0.041 | 1.12 ± 0.015 | 0.981 ± 0.028 | 1.25 ± 0.013 | 1.03 ± 0.054
0.00152 µM | 1.09 ± 0.074 | 1.13 ± 0.025 | 0.987 ± 0.03 | 1.306 ± 0.0093 | 1.02 ± 0.063
0.00457 µM | 1.14 ± 0.033 | 1.11 ± 0.016 | 0.972 ± 0.028 | 1.27 ± 0.02 | 1.04 ± 0.05
0.01372 µM | 1.11 ± 0.1 | 1.117 ± 0.011 | 0.98 ± 0.027 | 1.25 ± 0.026 | 1.01 ± 0.027
0.04115 µM | 1.16 ± 0.033 | 1.11 ± 0.02 | 0.974 ± 0.034 | 1.28 ± 0.052 | 0.989 ± 0.041
0.1235 µM | 1.14 ± 0.03 | 1.1 ± 0.044 | 0.941 ± 0.021 | 1.33 ± 0.053 | 0.966 ± 0.02
0.3704 µM | 1.14 ± 0.027 | 1.01 ± 0.017 | 0.906 ± 0.029 | 1.31 ± 0.046 | 0.966 ± 0.019
1.111 µM | 1.05 ± 0.11 | 0.837 ± 0.044 | 0.715 ± 0.0075 | 1.05 ± 0.018 | 0.868 ± 0.021
3.333 µM | 0.775 ± 0.079 | 0.482 ± 0.033 | 0.472 ± 0.01 | 0.6 ± 0.031 | 0.641 ± 0.025
10 µM | 0.0548 ± 0.011 | 0.264 ± 0.019 | 0.0125 ± 0.0015 | 0.101 ± 0.0037 | -0.0056 ± 0.0021

COc1cc2nccc(Oc3ccc(NC(=O)C4(C(=O)Nc5ccc(F)cc5)CC4)cc3)c2cc1OC [Cabozantinib]
relative viability
Details | HT1080 | KHOS-NP | RD-ES | SW684 | SYO-1
0.00017 µM | 1.06 ± 0.069 | 1.07 ± 0.027 | 0.916 ± 0.062 | 1.17 ± 0.034 | 1 ± 0.048
0.00051 µM | 1.06 ± 0.03 | 1.09 ± 0.026 | 0.92 ± 0.048 | 1.19 ± 0.024 | 1 ± 0.052
0.00152 µM | 1.07 ± 0.033 | 1.1 ± 0.012 | 0.953 ± 0.057 | 1.2 ± 0.035 | 0.974 ± 0.066
0.00457 µM | 1.07 ± 0.019 | 1.06 ± 0.022 | 0.95 ± 0.042 | 1.2 ± 0.047 | 0.91 ± 0.044
0.01372 µM | 1.05 ± 0.051 | 1.09 ± 0.036 | 0.938 ± 0.039 | 1.21 ± 0.032 | 0.915 ± 0.039
0.04115 µM | 1.04 ± 0.024 | 1.07 ± 0.033 | 0.949 ± 0.015 | 1.121 ± 0.01 | 0.751 ± 0.042
0.1235 µM | 1.06 ± 0.019 | 1.08 ± 0.014 | 0.958 ± 0.018 | 0.945 ± 0.044 | 0.708 ± 0.051
0.3704 µM | 1.06 ± 0.032 | 1.07 ± 0.031 | 0.895 ± 0.095 | 0.848 ± 0.029 | 0.627 ± 0.034
1.111 µM | 1.07 ± 0.016 | 1.04 ± 0.035 | 0.857 ± 0.042 | 0.852 ± 0.045 | 0.451 ± 0.045
3.333 µM | 0.962 ± 0.014 | 0.924 ± 0.016 | 0.616 ± 0.04 | 0.652 ± 0.046 | 0.322 ± 0.023
10 µM | 0.482 ± 0.02 | 0.586 ± 0.064 | 0.252 ± 0.022 | 0.38 ± 0.085 | 0.129 ± 0.01

Source: the supplement of paper PMC10883282
